From patent publication US9061981B2, “Diphenyl substituted cyclohexane derivatives, useful as modulators of the estrogen receptors beta” (Acadia Pharmaceuticals Inc., priority 2011, dated 2015) come the findings set out here.

For series [1], the system named is nigrostriatal dopamine neurons. Put plainly: Tyrosine hydroxylase immunofluorescence in SN and STR after 6OHDA lesion. Particulars: 6OHDA rats, once daily 7 days sc; 10 mg/kg (estradiol 100 μg/kg). The series is classed as in vivo, Male rats. The protocol:
(§1) Male rats received baseline assessment of weight, motor function (spontaneous locomotor behavior, rotorod performance) and sensorimotor gating (prepulse inhibition). Subjects were assigned to treatment conditions to equalize performance on all these measures. Subjects were then treated once daily for 7 days with either sesame oil vehicle, estradiol (100 μg/kg sc), Comparative substance 131 (10 mg/kg sc), Compound 8 (10 mg/kg sc), Comparative substance 623 (10 mg/kg sc) or Comparative substance 957 (10 mg/kg sc). On the second day of treatment, subjects received bilateral sham or 6OHDA lesions (8 μg in 4 μl) of the substantia nigra (A/P−5.0 mm, M/L±1.6 mm, D/V−8.2 mm) following the atlas of Paxinos and Watson (Paxinos, G., Watson, C., The Rat Brain in Stereotaxic Coordinates, Fourth Edition, New York: Academic Press, Spiral Bound, 1998). Behavioral assessments of motor function (spontaneous locomotion, rotorod and traversing a challenging beam), cognition (novel object recognition) and sensorimotor gating (prepulse inhibition) began after the final day of treatment. Following behavioral assessment, SN and striatal tissue were collected in order to determine the intactness of the nigrostriatal dopamine system.
Comparative compound 131 and Compound 8 were compared with estradiol for their ability to protect nigrostriatal dopamine neurons as measured by tyrosine hydroxylase (TH) immunohistochemistry in the SN and striatum (STR).

For series [2], the target named is T1, ERα (Homo sapiens, UniProt P03372).
T1 sequence (P03372 1-595): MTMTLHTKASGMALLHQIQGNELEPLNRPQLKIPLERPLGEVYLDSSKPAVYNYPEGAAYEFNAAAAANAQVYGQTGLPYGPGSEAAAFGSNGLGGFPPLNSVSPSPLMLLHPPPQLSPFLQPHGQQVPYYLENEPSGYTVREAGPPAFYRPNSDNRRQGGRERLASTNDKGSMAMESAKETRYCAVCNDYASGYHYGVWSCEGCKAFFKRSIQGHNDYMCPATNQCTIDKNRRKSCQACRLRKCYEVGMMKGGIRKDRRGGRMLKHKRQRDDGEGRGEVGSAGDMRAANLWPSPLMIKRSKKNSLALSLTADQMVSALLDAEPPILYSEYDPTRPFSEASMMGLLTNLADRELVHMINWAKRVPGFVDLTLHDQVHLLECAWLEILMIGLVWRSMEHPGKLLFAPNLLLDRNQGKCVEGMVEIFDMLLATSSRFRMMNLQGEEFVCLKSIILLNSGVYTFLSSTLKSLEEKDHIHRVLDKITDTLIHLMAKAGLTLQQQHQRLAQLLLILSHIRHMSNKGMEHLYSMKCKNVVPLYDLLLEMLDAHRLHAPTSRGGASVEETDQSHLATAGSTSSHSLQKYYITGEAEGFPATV
Put plainly: Competitive 3H-estradiol binding assay, ERα. Particulars: 1 nM 3H-estradiol, HEK293T cytosolic extract; read-out: Binding ERα pKi (converted). The protocol: (§2) HEK293T cells were transiently transfected for 48 hours with expression vectors encoding ERα or ERβ, before being serum starved for 4-6 hours. Cells were then harvested by scraping in ice-cold PBS and subsequently lysed using a cold buffer containing 10 mM Tris pH 7.4, 1 mM EDTA, 1 mM DTT before being subjected to polytron twice for 10 seconds. Cytosolic extracts were isolated by centrifugation at 15000 g for 30 minutes at 4° C. Competitive binding of the test compounds or the estradiol control was performed on 20 μL extract by overnight incubation at 4° C. in a total volume of 100 μL containing 1 nM ^3H-estradiol (Perkin Elmer, Boston, Mass.). The bound fraction was separated from the unbound one by the addition of 100 μL of Dextran coated charcoal, incubated for 10 minutes and subsequent centrifugation at 1000 rpm for 10 minutes. Samples (100 μL per sample) were then analyzed by liquid scintillation. Data was then analyzed using the curve fitting software GraphPad Prism.

For series [3], the target named is T2, ERβ (Homo sapiens, UniProt Q92731). The series is described as follows: Competitive 3H-estradiol binding assay, ERβ. On the set-up: expressed in transfected cells; host or cells: HEK293 cells, transient transfection. How it is done: as §2, with “Cells” for “HEK293T cells were transiently transfected for 48 hours with expression vectors encoding ERα or ERβ, before being serum starved for 4-6 hours. Cells”

Series [4] deals with T2, ERβ. The series is described as follows: Luciferase reporter gene assay (3*ERE) in HEK293 cells, ERβ. It is filed as cell-based. Details: expressed in transfected cells; host or cells: HEK293 cells, transient transfection. Particulars: for Emax: HEK293, 48 h, read-out: Luciferase Erβ % Eff. The protocol: (§3) HEK293 cells were grown to 70% confluency in DMEM containing 10% calf serum (Hyclone) prior to transfection. On the day of transfection (day 1), expression vectors for ERα or ERβ were cotransfected along a construct containing a synthetic 3*ERE upstream of the luciferase gene (Panomics), using Polyfect (Qiagen) per manufacturer's recommendations (ERE being estrogen response element). Sixteen hours post-transfection, cells were incubated in serum free DMEM. […] Cells extracts were then obtained by lyzing and the Luciferase activity measured, all of these steps performed using a commercially available kit (Promega).

Series [5] deals with bilateral 6-hydroxydopamine (6OHDA) lesion of the substantia nigra. Put plainly: Bilateral 6OHDA lesion of the substantia nigra, behavioral assessment. It is filed as in vivo, Male rats. Particulars: for prepulse inhibition (sensorimotor gating): 6OHDA rats, once daily 7 days sc, 10 mg/kg (estradiol 100 μg/kg); for motor performance (spontaneous locomotor activity, rotorod, challenging beam) / novel object recognition (cognition): rat, in vivo; for novel object recognition (cognition): sc, 10 mg/kg. The protocol:
as §1
In general terms: Falling from the rotarod earlier than controls is read as motor impairment.

Series [6] can be described thus: Non-specific binding assessment across tissue-free inserts. It is filed as in vitro ADME. Particulars: tissue-free insert, DPBS; for recovery at 120 min, 1 μM: tissue-free Millipore Millicell culture plate inserts; for Papp at 120 min, 1 μM: read-out: apparent permeability coefficient (Papp) through cell-free insert. How it is done:
Non-specific binding assessment (NSB) was conducted in a tissue-free plate containing Millipore Millicell culture plate inserts that were the same ones that were used in the permeation study across the culture tissues. Each of the tested compounds was dosed at 1 μM with DPBS buffer. Sampling time for the receiver chambers was 120 minutes after dosing, while the donor sides were sampled at 0 and 120 minutes after dosing. The NSB assessments consisted of the permeation rates across tissue-free inserts and the percent recovery by calculating the mass balance of the test campounds at the end of the experiment. The recovery assessment was used to assess the non-specific binding property of the tested compounds to the assay apparatus.

The target in series [7] is T1, ERα. Put plainly: Luciferase reporter gene assay (3*ERE) in HEK293 cells, ERα. The series is classed as cell-based. On the set-up: expressed in transfected cells; host or cells: transient transfection. Particulars: 48 hours; for EC50: na = not active, read-out: Luciferase Erα pEC50 (converted). How it is done: as §3
In general terms: A reporter such as luciferase makes a cellular process visible.

T2 sequence (Q92731 whole entry, species assumed): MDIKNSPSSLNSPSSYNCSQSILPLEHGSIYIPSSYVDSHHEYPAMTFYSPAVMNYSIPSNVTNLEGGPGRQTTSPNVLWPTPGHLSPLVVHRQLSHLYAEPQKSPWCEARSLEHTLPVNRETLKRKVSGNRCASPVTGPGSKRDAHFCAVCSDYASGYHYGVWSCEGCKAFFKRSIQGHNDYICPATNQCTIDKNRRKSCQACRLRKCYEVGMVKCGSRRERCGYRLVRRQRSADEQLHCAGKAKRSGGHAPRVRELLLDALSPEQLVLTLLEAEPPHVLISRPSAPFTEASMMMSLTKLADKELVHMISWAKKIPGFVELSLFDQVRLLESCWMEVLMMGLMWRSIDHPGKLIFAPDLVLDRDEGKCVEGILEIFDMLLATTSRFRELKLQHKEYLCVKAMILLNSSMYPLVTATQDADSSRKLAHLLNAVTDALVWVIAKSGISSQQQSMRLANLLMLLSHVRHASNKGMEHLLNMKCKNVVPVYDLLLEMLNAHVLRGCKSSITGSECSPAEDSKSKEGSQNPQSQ

`Oc1ccc(C2(c3ccccc3F)CCC(F)(F)CC2)cc1` [Compound 8, 4-(4,4-Difluoro-1-(2-fluorophenyl)cyclohexyl)phenol]: in series [1], the “percent immunopositive and mean pixel intensity of TH immunofluorescence in the STR” value is “increase in percentage of the image that was immunopositive and increased mean pixel intensity”; the “percent immunopositive, mean cell size and mean pixel intensity of TH immunofluorescence in the SN” value (“percent immunopositive … in the SN” below) was “improved percent immunopositive, mean cell size and mean pixel intensity”; the “tyrosine hydroxylase positive cell number in the SN” value is “prevented the reduction in cell number”. In addition, the Ki at ERα [2] is 79.4 nM. In addition, the Ki on ERβ [3] is 6.31 nM. For the same compound, at ERβ [4], the EC50 is 0.631 nM and the Emax amounted to 96%. Moreover, in series [5], the “prepulse inhibition (sensorimotor gating)” value (from here on “prepulse inhibition”) was “prevented the 6OHDA-induced deficit in PPI”; the “motor performance (spontaneous locomotor activity, rotorod, challenging beam)” value (“motor performance” below) was “prevented the impairment”; the “novel object recognition (cognition)” value was “showed improved memory”. In series [6], the recovery at 120 min, 1 μM is 57% and the apparent permeability coefficient (Papp) at 120 min, 1 μM is 19.8 ×10⁻⁶ cm/s. Also, at ERα [7], the “Luciferase Erα % Eff” value came to 32% and the EC50 was 631 nM.
On to `Oc1ccc(C2(c3cccc(F)c3Cl)CCCCC2)cc1` [Compound 623], for which, in series [1], the “percent immunopositive … in the SN” value was “improved percent immunopositive, mean cell size and mean pixel intensity”; the “tyrosine hydroxylase positive cell number in the SN” value is “prevented the reduction in cell number”. The Ki at ERα [2] is 794 nM. Further, the Ki on ERβ [3] was 6.31 nM. Moreover, at ERβ [4], the EC50 was 5.01 nM and the Emax was determined as 99%. Besides, in series [5], the “prepulse inhibition” value is given as “prevented the 6OHDA-induced deficit in PPI”; the “motor performance” value is reported as “prevented the impairment”; the “novel object recognition (cognition)” value was “showed improved memory”. In series [6], the recovery at 120 min, 1 μM worked out at 22% and the apparent permeability (Papp) at 120 min, 1 μM is 1.17 ×10⁻⁶ cm/s. In addition, on ERα [7], the “Luciferase Erα % Eff” value worked out at 15% and the EC50 was 398 nM.
For the compound `Oc1ccc(C2(c3ccccc3Cl)CCCCC2)cc1F` [Compound 957], in series [1], the “percent immunopositive … in the SN” value is “improved percent immunopositive, mean cell size and mean pixel intensity”; the “tyrosine hydroxylase positive cell number in the SN” value is on record as “prevented the reduction in cell number”. Moreover, the Ki on ERα [2] was 200 nM. On ERβ [3], this compound had a Ki of 15.8 nM. At ERβ [4], the EC50 was 1.26 nM and the Emax was 62%. In series [5], the “prepulse inhibition” value was “prevented the 6OHDA-induced deficit in PPI”; the “motor performance” value is “prevented the impairment”; the “novel object recognition (cognition)” value is recorded as “did not reverse the cognitive deficit”. Besides, in series [6], the recovery at 120 min, 1 μM was found to be 18% and the Papp at 120 min, 1 μM stood at 0.881 ×10⁻⁶ cm/s. At ERα [7], the “Luciferase Erα % Eff” value stood at 13%.

What is called Papp is the rate of passage across a membrane or cell layer, normalised by area and donor concentration.
